The target in experiment [1] is T1, human CK1δ (Cos 7 cells cotransfected with mouse Per3-GFP) (Homo sapiens, UniProt P48730).
T1 construct: His tag of the vector pcDNA4/hisA (only the vector name is printed); expressed in transfected cells; host or cells: Cos 7 cells
Description: CK1 WCA HCS nuclear translocation assay (CK1δ). The class given is cell-based. The conditions noted are these: inhibition of mPer3-GFP translocation to the nucleus, overnight exposure, read-out: CK1 δ WCA EC50. In short, it runs like this: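 Cos 7 cells cotransfected with mouse Per3-GFP and human CK1ε (1:5) or CK1δ (1:11) plasmids, exposed to compounds in dose response overnight at 37 °C, then fixed and Hoechst-stained. Nuclear-cytoplasmic GFP intensity difference by high-content imaging; only cells with total mPer3-GFP intensity ≥20,000 analysed.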

A further experiment deals with CKI ε wild type (Homo sapiens, UniProt P49674). Nature of the experiment: CK1ε kinase assay (Kinase-Glo). As to conditions: 10 μM ATP, 2.5 nM CKI ε, 70 min at 25° C.; read-out: CK1 ε:IC50. The class given is biochemical. Put shortly: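 Luminescent Kinase-Glo readout after 70 min at 25° C with 2.5 nM enzyme, 10 μM ATP and 42 μM phosphopeptide substrate in 50 mM Tris pH 7.5, 10 mM MgCl2, 1 mM DTT, 100 μg/mL BSA; DMSO at 4% in controls.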
Chain of CKI ε wild type (P49674 whole entry): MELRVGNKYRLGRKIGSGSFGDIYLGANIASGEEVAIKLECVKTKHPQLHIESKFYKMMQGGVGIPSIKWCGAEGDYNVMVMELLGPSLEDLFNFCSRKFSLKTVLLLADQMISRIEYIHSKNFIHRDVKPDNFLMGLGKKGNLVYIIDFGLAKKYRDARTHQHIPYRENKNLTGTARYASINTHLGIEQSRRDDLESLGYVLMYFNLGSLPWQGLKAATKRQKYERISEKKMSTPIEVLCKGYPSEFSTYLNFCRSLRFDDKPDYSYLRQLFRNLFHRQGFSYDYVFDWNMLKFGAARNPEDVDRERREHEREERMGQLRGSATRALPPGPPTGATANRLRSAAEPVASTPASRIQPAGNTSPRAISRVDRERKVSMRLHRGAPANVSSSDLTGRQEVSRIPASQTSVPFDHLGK

The target of another experiment is CKIδ wild type (Homo sapiens, UniProt P48730). Description: CK1δ kinase assay (Kinase-Glo). The class given is biochemical. The conditions noted are these: 10 μM ATP, 2 nM CKIδ, 85 min at 25° C.; read-out: CK1 δ IC50. Put shortly:
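Reaction with 2 nM wild-type CKIδ, 10 μM ATP and 42 μM phosphopeptide substrate in 50 mM Tris pH 7.5, 10 mM MgCl2, 1 mM DTT, 100 μg/mL BSA, 85 min at 25 °C. Remaining ATP measured by Kinase-Glo luminescence.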

For experiment [2], the target named is T2, human CK1Epsilon (Cos 7 cells cotransfected with mouse Per3-GFP) (Homo sapiens, UniProt P49674).
T2 construct: His tag of the vector pcDNA4/hisA (only the vector name is printed); expressed in transfected cells; host or cells: Cos 7 cells
T2 sequence (P49674 whole entry): as above
Nature of the experiment: CK1 WCA HCS nuclear translocation assay (CK1ε). It counts as cell-based. The conditions noted are these: inhibition of mPer3-GFP translocation to the nucleus, overnight exposure, read-out: CK1 ε WCA EC50. The protocol:
CK1 WCA HCS Nuclear Translocation Assay.
Cos 7 cells were maintained at 37° C. in 5% CO2 in Dulbecco's Modified Eagle Medium (Gibco 11995) supplemented with 10% fetal bovine serum. Log-phase cells were dislodged with 5 min treatment of TrypLE Express (Gibco 12605) and viable cell count was determined with Cedex cell counter. Cells were diluted in DMEM medium to a density of 1.5e5 viable cells/mL in ⅔ of the final volume of final transfected cell mix. Cells were cotransfected with two plasmid DNAs, mouse Per3-GFP (green fluorescent protein) in pd2EGFP-N1 vector and human CKI in pcDNA4/hisA vector (for CK1Epsilon at a ratio of 1:5 respectively; for CK1δ at a ratio of 1:11 respectively), using Lipofectamine 2000 reagent (Invitrogen) according to the manufacturer's recommendations. The transfection mix contained approximately 0.83 μg/mL of DNA and 6 μL/mL of Lipofectamine 2000, in a total of ⅓ of the final transfection volume in Opti-MEM I medium (Invitrogen). After 20 min at rt, the cell mix was combined with the DNA transfection mix, per manufacturer instructions. 50 μL of the transfected cell suspension was dispensed per well by multidrop dispenser into Greiner 384-well Cellcoat (PDL) plates (Greiner #781946).
Compounds were solubilized in 100% DMSO, diluted with Opti-MEM I to a 4× concentration before addition to plated cells. After overnight exposure at 37° C. in a CO2 incubator, cells were fixed by the addition of 12% paraformaldehyde (Electron Microscopy Sciences, Hatfield, Pa.) in phosphate-buffered saline (PBS) with 20% sucrose to a final concentration of 4%, and then the cells were incubated for 30 min at rt. Fixative was removed, and cells were washed with PBS and then stained with 0.4 μg/ml Hoechst dye (Invitrogen) in blocking buffer containing 4% goat serum (Vector Labs s-1000) and 0.1% TritonX (Sigma T8787) for 1 h. Cells were washed again with PBS and stored at 4° C. in PBS or scanned immediately with the Cellomics ArrayScan VTI. CKIδ dependent nuclear localization of the GFP-tagged mPer3 protein was quantitated using the Cellomics ArrayScan VTI system utilizing the Cytoplasm to Nucleus translocation bioapplication to calculate the Nuclear-Cytoplasmic Intensity difference. Inhibitors of CK1 δ/ε were tested across a dose response curve to evaluate their ability to inhibit mPer3-GFP translocation to the nucleus. Cells with a total intensity of mPER3:GFP expression equal to or greater than 20,000 are included in analysis.

Chain of CKIδ wild type (P48730 whole entry): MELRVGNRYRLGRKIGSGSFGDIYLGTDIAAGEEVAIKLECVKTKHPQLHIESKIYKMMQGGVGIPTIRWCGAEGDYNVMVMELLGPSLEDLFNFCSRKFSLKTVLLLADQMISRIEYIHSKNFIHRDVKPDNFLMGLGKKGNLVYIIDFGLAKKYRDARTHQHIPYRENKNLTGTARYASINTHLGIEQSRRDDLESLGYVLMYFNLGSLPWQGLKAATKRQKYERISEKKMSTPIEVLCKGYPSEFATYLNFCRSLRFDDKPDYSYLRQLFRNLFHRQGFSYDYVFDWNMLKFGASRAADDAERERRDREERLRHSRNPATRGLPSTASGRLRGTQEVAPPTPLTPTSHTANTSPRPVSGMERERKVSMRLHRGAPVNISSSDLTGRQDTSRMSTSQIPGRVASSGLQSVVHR
T1 sequence (P48730 whole entry): as above

For the compound `Cn1cc(-c2ccnc3c2CN(S(C)(=O)=O)C3)c(-c2ccc(F)cc2)n1` [Example 10, 4-[3-(4-fluorophenyl)-1-methyl-1H-pyrazol-4-yl]-6-(methylsulfonyl)-6,7-dihydro-5H-pyrrolo[3,4-b]pyridine], the EC50 in experiment [1] was 0.0135 µM; in experiment [2], 0.0624 µM. Besides, the IC50 on CKI ε wild type worked out at 0.0108 µM; at CKIδ wild type, 0.00311 µM.
With `CCN1Cc2nccc(-c3cn(C)nc3-c3ccc(F)cc3)c2C1=O` [Example 34, 6-ethyl-4-[3-(4-fluorophenyl)-1-methyl-1H-pyrazol-4-yl]-6,7-dihydro-5H-pyrrolo[3,4-b]pyridin-5-one], the EC50 stood at 0.099 µM in experiment [1] and 0.468 µM in experiment [2]. In addition, the IC50 on CKI ε wild type is 0.0615 µM; at CKIδ wild type, 0.0124 µM.

The values above are taken from US8536164B2, “Fused pyridine compounds as casein kinase inhibitors” (Pfizer Inc., priority 2010, dated 2013).
